Publication PMC3817308, “Metal-sensitive and thermostable trypsin from the crevalle jack (Caranx hippos) pyloric caeca: purification and characterization” (Chemistry Central Journal, 2013)

Tested on: T1, trypsin from crevalle jack (Caranx hippos) pyloric caeca
T1 construct: gene trypsin-like enzyme; native, purified from pyloric caeca (heat, ammonium sulfate, Sephadex G-75); mature N-terminus IVGGFECTPHVFAYQ
Test: p-nitroaniline release at […] nm, Michaelis-Menten fit
Format: biochemical
Settings: 0.1 M Tris-HCl pH 8.0; 0.02-2.4 mM BApNA

`NC(N)=NCCCC(NC(=O)c1ccccc1)C(=O)Nc1ccc([N+](=O)[O-])cc1` (racemic) [BApNA, N-α-benzoyl-DL-arginine-p-nitroanilide] showed a Km of 689 ± 50 µM.
